Data published in publication PMC3766860, “Two Novel Tyrosinase Inhibitory Sesquiterpenes Induced by CuCl2 from a Marine-Derived Fungus Pestalotiopsis sp. Z233” (Marine Drugs, 2013).

Target: Mushroom tyrosinase
Test: o-diphenolase assay of mushroom tyrosinase, L-DOPA substrate, DOPAchrome absorbance at […] nm
Format: biochemical

CC(=O)OC[C@]12[C@H](OC(C)=O)[C@H](O)C[C@H](C)[C@]1(OC(C)=O)[C@@H](OC(C)=O)[C@@H](C(C)(C)O)C[C@H]2OC(=O)c1ccccc1 (relative stereo) [compound 1, 1β,5α,6α,14-tetraacetoxy-9α-benzoyloxy-7βH-eudesman-2β,11-diol]
IC50: 14.8 µM

CC(=O)O[C@@]12C[C@@H](C(C)(C)O)C[C@@H](OC(=O)c3ccccc3)[C@@]1(CO)[C@H](O)[C@H](O)C[C@@]2(C)OC(C)=O (relative stereo) [compound 2, 4α,5α-diacetoxy-9α-benzoyloxy-7βH-eudesman-1β,2β,11,14-tetraol]
IC50: 22.3 µM
